The source of these data is patent publication US20030235852A1, “Nucleic acid-peptide display libraries containing peptides with unnatural amino acid residues, and methods of making same using peptide modifying agents” (priority 2002, published 2003).

The target in one assay is T1, PBP2a (Staphylococcus aureus, UniProt P07944).
T1 construct: The truncated PBP2a gene (Roychoudhury et al., J. Biol. Chem. 269:112067-12073, 1994) (cleaved yes); made in house; host or cells: E. coli BL21(DE3)
Put plainly: biochemical. In kind it is biochemical.

Assay [1] addresses penicillin-binding protein 2a (PBP2a), truncated, recombinant from E. coli (Staphylococcus aureus (methicillin-resistant, MRSA)) (UniProt P07944). Put plainly: relative IC50: competition with biotinylated ampicillin for PBP2a, SDS-PAGE and streptavidin-HRP blot.
Assay [2] has the same target. The experiment in a line: relative IC50: competition with biotinylated ampicillin for PBP2a.

pIC50: −log10 of the molar value. Like-named read-outs stand apart in the source and are kept apart here. Peptide text beside a SMILES is read from it. * marks the point of attachment. X1 = CC1(C)S[C@@H]2[C@H](NC(=O)C*)C(=O)N2[C@H]1C(=O)O

Consider `CC[C@H](C)[C@H](NC(=O)[C@H](CSCC(=O)N[C@@H]1C(=O)N2[C@@H]1SC(C)(C)[C@@H]2C(=O)O)NC(=O)[C@H](CC(N)=O)NC(=O)[C@H](CO)NC(=O)[C@H](CC(N)=O)NC(=O)[C@H](CCCNC(=N)N)NC(=O)[C@@H](N)CC(C)C)C(=O)N[C@@H](CCCNC(=N)N)C(=O)N[C@@H](Cc1c[nH]cn1)C(=O)N[C@@H](Cc1ccccc1)C(=O)N[C@@H](Cc1ccccc1)C(=O)O` [LRNSNC(pen)IRHFF] (H-LRNSNC(X1)IRHFF-OH), for which the pIC50 (as a rule, −log10 of the IC50, conventionally taken in molar units) at PBP2a (2 μg pure PBP2a, conjugate 15 min at 37° C., then 20 μg biotinylated ampicillin 10 min, read-out: relative IC50) was roughly 2.15. Moreover, on PBP2a (as compared), the “improvement of PBP2a inhibition over the parent penam” value is recorded as “about 100 fold”.
In turn, `CO/N=C(\C(=O)N[C@@H]1C(=O)N2C(C(=O)O)=C(COC(C)=O)CS[C@H]12)c1csc(N)n1` [cefotaxime, reference compound] had a pIC50 against PBP2a of 2.54.
Regarding “LRNSNC(COOH)IRHFF (residues 2-12 of SEQ ID NO: 5), peptide derivatized with bromoacetic acid”, in assay [1], the pIC50 was less than 1.46.
On to “LRNSNC(pen)IRHFF (residues 2-12 of SEQ ID NO: 5), synthetic peptide penicillanate conjugate”, for which, in assay [2], the fold improvement compared to 6-aminopenicillanic acid came out at 100 fold.
